Assay results from patent publication US6660690B2, “Seed treatment with combinations of insecticides” (priority 2000, dated 2003).

What was measured:
black cutworm larvae = experiment: Black cutworm feeding damage on corn grown from treated seed or in treated soil (Reference Example 1); format: in vivo; settings: for Plant Defol. 3 DAI / Plant Defol. 7 DAI / Plant Defol. 10 DAI: rating 1=no damage, 10=complete defoliation
Procedure: (§1) A lambda-cyhalothrin seed treatment formulation was prepared by diluting the WARRIOR® T insecticide (Zeneca Ag Products, Wilmington, Del.), which contains 11.4% lambda-cyhalothrin as the active ingredient, into water as a carrier. This formulation was applied for one minute at room temperature to twenty-five grams of Pioneer corn seed (Cultivar PN3394) in a rotostatic seed treater at a rate of 125 g, 250 g or 500 g active ingredient (Al) to 100 kg seed. The treated seeds were allowed to sit uncapped for four to twenty-four hours before planting.
(§2) Treated and untreated seeds (Pioneer hybrid PN3394) were planted in a soil mix consisting of Dupo silt loam, 30% Perlite, 20% coarse sand (WB-10 grade) in six groups of tubs (20 in. L×15 in. W×8 in. D). Twelve seeds were planted per tub and three tubs were planted for each treatment regimen. Soil applications of FORCE® 3GR, which contains 3% tefluthrin granule as the active ingredient, were used for two sets of tubs containing untreated seeds. The FORCE 3GR was applied either in-furrow or incorporated into a 5 inch band on the soil surface at the time of planting. The tubs were overhead irrigated until the plants were infested with black cutworm larvae.
The rate of application for the FORCE 3GR was reported in units of grams of the active ingredient per hectare (g/ha), while the rate of application of the WARRIOR T to the seeds was reported in units of grams of the active ingredient per 100 kilograms of the seeds (g/100 kg). Although the conversion of one of these units to the other will vary somewhat according to the type of seed that is being used, the size and weight of the seed, and the density of planting that is used—among other things—an approximate conversion for corn seed can be carried out as follows. Assuming a seed application rate of lambda cyhalothrin of, for example, 125 g/100 kg of seed and a planting density of 15 lbs seed/ac, about 14.7 acres can be planted with 100 kg of the seed. This is an effective application rate of about 8.5 g of lambda cyhalthrin per acre. At 2.47 ac/ha, the seed treatment level of 125 g/100 kg is approximately equivalent to a surface banding treatment at about 21 g/ha.
The corn plants were infested at 12 DAP, which corresponds to late growth stage V1 by placing two black cutworm larvae at ¾ instar on the soil surface near the base of the plant. Plants were rated 3, 7 and 10 days after infestation (DAI) for the number of cut plants, as well as damage from leaf feeding. The percent stand reduction due to plant cutting was calculated by dividing the number of cut plants into the number of plants present at infestation. The foliar feeding injury was evaluated using a rating scale of 1=no damage and 10=complete defoliation.

corn plants = experiment: Vigor rating of corn plants at 12 DAP before infestation (indication of phytotoxicity); format: in vivo; settings: rating 1=extremely low vigor, 10=highest
Procedure: as §1, §2
At twelve days after planting (DAP) but before infestation, the overall health of each plant was rated by looking at emergence, height and appearance. This vigor rating gives an indication of any phytotoxicity from the seed or soil treatment. A rating of 1 indicates extremely low vigor while 10 is the highest vigor rating.

SMILES: Cc1c(F)c(F)c(COC(=O)[C@@H]2[C@H](/C=C(\Cl)C(F)(F)F)C2(C)C)c(F)c1F (racemic) [Tefluthrin, (2,3,5,6-tetrafluoro-4-methylphenyl)-methyl-(1 alpha, 3 alpha)-(Z)-(±)-3-(2-chloro-3,3,3-trifluoro-1-propenyl)-2,2-dimethylcyclopropanecarboxylate]
- % Stand Reduct'n 3 DAI (black cutworm larvae; soil granule banded 30 g/ha): 0.0%
- Plant Defol. 3 DAI (black cutworm larvae; soil granule banded 30 g/ha): 1.7
- % Stand Reduct'n 7 DAI (black cutworm larvae; soil granule banded 30 g/ha): 0.0%
- Plant Defol. 7 DAI (black cutworm larvae; soil granule banded 30 g/ha): 1.7
- % Stand Reduct'n 10 DAI (black cutworm larvae; soil granule banded 30 g/ha): 0.0%
- Plant Defol. 10 DAI (black cutworm larvae; soil granule banded 30 g/ha): 0.3
- % Stand Reduct'n 3 DAI (black cutworm larvae; soil granule in-furrow 30 g/ha): 33.9%
- Plant Defol. 3 DAI (black cutworm larvae; soil granule in-furrow 30 g/ha): 5.0
- % Stand Reduct'n 7 DAI (black cutworm larvae; soil granule in-furrow 30 g/ha): 48.0%
- Plant Defol. 7 DAI (black cutworm larvae; soil granule in-furrow 30 g/ha): 6.0
- % Stand Reduct'n 10 DAI (black cutworm larvae; soil granule in-furrow 30 g/ha): 48.0%
- Plant Defol. 10 DAI (black cutworm larvae; soil granule in-furrow 30 g/ha): 5.3
- Vigor at 12 DAP (corn plants; soil granule (FORCE 3GR) banded 30 g/ha): 8.7
- Vigor at 12 DAP (corn plants; soil granule (FORCE 3GR) in-furrow 30 g/ha): 9.0

SMILES: CC1(C)[C@H](C(=O)O[C@H](C#N)c2cccc(Oc3ccccc3)c2)[C@@H]1/C=C(\Cl)C(F)(F)F [λ-cyhalothrin, [1 alpha (s), 3 alpha(z)]-cyano(3-phenoxyphenyl) methyl-3-(2-chloro-3,3,3-trifluoro-1-propenyl)-2,2-dimethylcyclopropane carboxylate]
- % Stand Reduct'n 3 DAI (black cutworm larvae; seed treatment 125 g/100 kg): 13.9%
- Plant Defol. 3 DAI (black cutworm larvae; seed treatment 125 g/100 kg): 4.3
- % Stand Reduct'n 7 DAI (black cutworm larvae; seed treatment 125 g/100 kg): 16.7%
- Plant Defol. 7 DAI (black cutworm larvae; seed treatment 125 g/100 kg): 5.0
- % Stand Reduct'n 10 DAI (black cutworm larvae; seed treatment 125 g/100 kg): 19.4%
- Plant Defol. 10 DAI (black cutworm larvae; seed treatment 125 g/100 kg): 3.3
- % Stand Reduct'n 3 DAI (black cutworm larvae; seed treatment 250 g/100 kg): 3.0%
- Plant Defol. 3 DAI (black cutworm larvae; seed treatment 250 g/100 kg): 3.7
- % Stand Reduct'n 7 DAI (black cutworm larvae; seed treatment 250 g/100 kg): 3.0%
- % Stand Reduct'n 7 DAI (black cutworm larvae; seed treatment 250 g/100 kg, listed as lambda-cyhalothrin): 3%
- Plant Defol. 7 DAI (black cutworm larvae; seed treatment 250 g/100 kg): 2.7
- % Stand Reduct'n 10 DAI (black cutworm larvae; seed treatment 250 g/100 kg): 3.0%
- Plant Defol. 10 DAI (black cutworm larvae; seed treatment 250 g/100 kg): 1.7
- % Stand Reduct'n 3 DAI (black cutworm larvae; seed treatment 500 g/100 kg): 0.0%
- Plant Defol. 3 DAI (black cutworm larvae; seed treatment 500 g/100 kg): 2.0
- % Stand Reduct'n 7 DAI (black cutworm larvae; seed treatment 500 g/100 kg): 0.0%
- % Stand Reduct'n 7 DAI (black cutworm larvae; seed treatment 500 g/100 kg, listed as lambda-cyhalothrin): 0%
- Plant Defol. 7 DAI (black cutworm larvae; seed treatment 500 g/100 kg): 2.3
- % Stand Reduct'n 10 DAI (black cutworm larvae; seed treatment 500 g/100 kg): 0.0%
- Plant Defol. 10 DAI (black cutworm larvae; seed treatment 500 g/100 kg): 1.0
- Vigor at 12 DAP (corn plants; seed treatment 125 g/100 kg): 9.0
- Vigor at 12 DAP (corn plants; seed treatment 250 g/100 kg): 8.3
- Vigor at 12 DAP (corn plants; seed treatment 500 g/100 kg): 8.3
